Reference: patent publication US8431596B2 (Cancer Research Technology Limited, priority 2007, dated 2013)
Where “and” joins values, the source holds several entries; their conditions need not be identical. Equal entries are not always repeated.

Legend:
[1] = molecular target: T1, AXL (human catalytic domain) (Homo sapiens, UniProt P30530); assay: AXL (human catalytic domain) Enzyme Activity Assay (IMAP fluorescence polarisation); type: biochemical
T1 construct: purchased Upstate Ltd. 14-512
T1 sequence (P30530 473-894): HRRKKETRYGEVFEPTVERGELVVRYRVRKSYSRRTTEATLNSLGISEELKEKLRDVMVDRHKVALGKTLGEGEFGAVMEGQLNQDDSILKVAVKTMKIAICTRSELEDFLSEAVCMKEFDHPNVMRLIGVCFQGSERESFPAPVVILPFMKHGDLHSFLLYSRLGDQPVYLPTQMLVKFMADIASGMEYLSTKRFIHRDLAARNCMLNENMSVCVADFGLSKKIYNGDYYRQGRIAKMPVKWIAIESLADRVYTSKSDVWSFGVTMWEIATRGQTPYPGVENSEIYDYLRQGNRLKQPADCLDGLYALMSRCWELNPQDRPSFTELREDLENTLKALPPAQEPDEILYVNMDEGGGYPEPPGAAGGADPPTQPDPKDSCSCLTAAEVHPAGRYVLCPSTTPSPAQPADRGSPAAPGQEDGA
How it was run: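 Recombinant human AXL isoform 1 (aa473-894; final 15 nM) phosphorylated 100 nM fluorescein-CSK-tide with 150 μM ATP (KM) in HEPES pH 7.0/MgCl2/DTT buffer for 60 min at room temperature. IMAP fluorescence polarisation read after overnight binding; IC50 from 10-point 4-parameter logistic fits.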

[2] = tested on: Axl activation via the downstream phosphorylation of Akt (serine 473); assay: AXL Inhibition Cell Based ELISA Assay (FACE kit, Gas6-stimulated MDA-MB-231 cells); conditions: Homo sapiens, first data set, Gas6 200 ng/ml, pS473 Akt
Method: AXL Inhibition Cell Based ELISA Assay
This cell based ELISA assay is a simple cell-based method used to monitor activation of proteins by phosphorylation. The Active Motif, Fast Activated Cell-based ELISA (FACE) kit (Active Motif Cat No: 48120) was used in this case to monitor the inhibition, by test compounds, of Axl activation via the downstream phosphorylation of Akt (serine 473). In this system, cells are cultured in 96 well plates and treated with test compounds and Axl is activated by the introduction of Gas6 (Axl ligand). The inhibition of Axl can be directly assessed via the reduction of pS^473 Akt levels.
Active Motif FACE Kit reagents (Active Motif Cat. No: 48120(AKT)).
10% hydrogen peroxide (Sigma H1009).
10% Sodium azide (Sigma 7128).
37% Formaldehyde (Sigma F8775).
Axl/Fc conjugate (R&D Systems 154-AL).
Recombinant mouse Gas6 (R&D Systems 986-GS-025).
All cell incubations were carried out in humidified incubators set at 5% CO2 and 37° C. […]
Immunostaining (carried out as outlined in FACE kit protocol). […] 100 μL developing solution was added to each well and monitored for colour change to medium to dark blue (2 to 20 minutes). 100 μL of stop solution was then added and absorbance was read at 450 nm within 5 minutes of addition.
Crystal Violet cell staining. After reading absorbance at 450 nm, the plates were washed twice with 200 μL wash buffer and twice with 200 μL PBS. […]

[3] = first data set, recombinant AXL isoform 1 aa473-894, 150 μM ATP
[4] = further data set (WW-001 through WW-169, XX-001 through XX-469, YY-001 through YY-016, ZZ-001 through ZZ-003), 150 μM ATP

Structure (SMILES) | IC50 [1, 3] | IC50 [1, 4] [nM] | IC50 [2] [nM]
CN1CCOc2cc(-c3cccc4nc(NC(=O)C5CC5)nn34)ccc21 [WW-104] | < 1000 nM | 100 to 1000 | 8490
CCCNC(=O)Cn1cc(-c2cccc3nc(Nc4ccc(OCCN5CCCC5)cc4)nn23)cn1 [XX-441] | – | 100 to 1000 | –
c1cncc(CNc2cccc(-c3cccc4nc(Nc5ccc(OCCN6CCCC6)cc5)nn34)c2)c1 [XX-442] | – | 100 to 1000 | –
Fc1ccc(CNc2cccc(-c3cccc4nc(Nc5ccc(OCCN6CCCC6)cc5)nn34)c2)nc1 [XX-443] | – | 100 to 1000 | –
c1cc(NCC2CC2)cc(-c2cccc3nc(Nc4ccc(OCCN5CCCC5)cc4)nn23)c1 [XX-444] | – | 100 to 1000 | –
c1ccc(-c2cc(CNc3cccc(-c4cccc5nc(Nc6ccc(OCCN7CCCC7)cc6)nn45)c3)no2)cc1 [XX-445] | – | 100 to 1000 | –
Cc1cc(CNc2cccc(-c3cccc4nc(Nc5ccc(OCCN6CCCC6)cc5)nn34)c2)no1 [XX-446] | – | 100 to 1000 | –
c1cc(NCc2nc3c(s2)CCCC3)cc(-c2cccc3nc(Nc4ccc(OCCN5CCCC5)cc4)nn23)c1 [XX-447] | – | 100 to 1000 | –
FC(F)(F)c1ccc(CNc2cccc(-c3cccc4nc(Nc5ccc(OCCN6CCCC6)cc5)nn34)c2)o1 [XX-448] | – | 100 to 1000 | –
Cc1ncc(CNc2cccc(-c3cccc4nc(Nc5ccc(OCCN6CCCC6)cc5)nn34)c2)n1C [XX-449] | – | 100 to 1000 | –
COc1cc(CNc2cccc(-c3cccc4nc(Nc5ccc(OCCN6CCCC6)cc5)nn34)c2)cc(OC)c1 [XX-450] | – | 100 to 1000 | –
COc1ccccc1CNc1cccc(-c2cccc3nc(Nc4ccc(OCCN5CCCC5)cc4)nn23)c1 [XX-451] | – | 100 to 1000 | –
COc1cccc(CNc2cccc(-c3cccc4nc(Nc5ccc(OCCN6CCCC6)cc5)nn34)c2)c1 [XX-452] | – | 100 to 1000 | –
COc1ccc(CNc2cccc(-c3cccc4nc(Nc5ccc(OCCN6CCCC6)cc5)nn34)c2)cc1 [XX-453] | – | 100 to 1000 | –
Cc1ccccc1CNc1cccc(-c2cccc3nc(Nc4ccc(OCCN5CCCC5)cc4)nn23)c1 [XX-454] | – | 100 to 1000 | –
Cc1cccc(CNc2cccc(-c3cccc4nc(Nc5ccc(OCCN6CCCC6)cc5)nn34)c2)c1 [XX-455] | – | 1000 to 10000 | –
Fc1ccc(CNc2cccc(-c3cccc4nc(Nc5ccc(OCCN6CCCC6)cc5)nn34)c2)cc1 [XX-456] | – | 100 to 1000 | –
Cc1ccc(COc2cccc(-c3cccc4nc(Nc5ccc(OCCN6CCCC6)cc5)nn34)c2)cc1 [XX-457] | – | 1000 to 10000 | –
Cn1nc(COc2cccc(-c3cccc4nc(Nc5ccc(OCCN6CCCC6)cc5)nn34)c2)cc1-c1ccccc1 [XX-459] | – | 1000 to 10000 | –
Cc1cc(COc2cccc(-c3cccc4nc(Nc5ccc(OCCN6CCCC6)cc5)nn34)c2)nn1C [XX-460] | – | 100 to 1000 | –
COc1ccc(-c2nc(COc3cccc(-c4cccc5nc(Nc6ccc(OCCN7CCCC7)cc6)nn45)c3)no2)cc1 [XX-461] | – | 1000 to 10000 | –
O=C(NCc1ccc(Cl)cc1)c1cccc(-c2cccc3nc(Nc4ccc(OCCN5CCCC5)cc4)nn23)c1 [XX-462, N-(4-Chloro-benzyl)-3-{2-[4-(2-pyrrolidin-1-yl-ethoxy)-phenylamino]-[1,2,4]triazolo[1,5-a]pyridin-5-yl}-benzamide] | – | 1000 to 10000 | –
Cc1ccc(-c2cccc(-c3cccc4nc(Nc5ccc(OCCN6CCCC6)cc5)nn34)c2)s1 [XX-463] | – | 1000 to 10000 | –

Structure (SMILES) | IC50 [1, 3] | IC50 [1, 4] [nM] | IC50 [2] [nM]
Cc1noc(C)c1-c1cccc(-c2cccc3nc(Nc4ccc(OCCN5CCCC5)cc4)nn23)c1 [XX-464] | – | 100 to 1000 | –
Cc1ccc(-c2cccc(-c3cccc4nc(Nc5ccc(OCCN6CCCC6)cc5)nn34)c2)cc1 [XX-465] | – | 1000 to 10000 | –
c1cc(-c2ccncc2)cc(-c2cccc3nc(Nc4ccc(OCCN5CCCC5)cc4)nn23)c1 [XX-466] | – | 100 to 1000 | –
Fc1ccc(-c2cccc(-c3cccc4nc(Nc5ccc(OCCN6CCCC6)cc5)nn34)c2)cc1 [XX-467] | – | 1000 to 10000 | –
COc1ccc(-c2cccc(-c3cccc4nc(Nc5ccc(OCCN6CCCC6)cc5)nn34)c2)cc1 [XX-468] | – | 1000 to 10000 | –
c1cc(-c2cncnc2)cc(-c2cccc3nc(Nc4ccc(OCCN5CCCC5)cc4)nn23)c1 [XX-469] | – | 100 to 1000 | –
COc1ccc(-c2nccc3nc(Nc4ccc(OCCN5CCCCC5)cc4)nn23)cc1 [YY-002] | < 1000 nM | ≤ 100 | –
COc1ccc(-c2nccc3nc(Nc4ccc(OCCN(C)C)cc4)nn23)cc1 [YY-003] | < 1000 nM and 105 nM | 100 to 1000 | –
COc1ccc(-c2nccc3nc(Nc4ccc(C(=O)NCCN(C)C)cc4)nn23)cc1 [YY-004] | < 1000 nM | ≤ 100 | –
CCOc1ccc(-c2nccc3nc(Nc4cccc(OCCN(CC)CC)c4)nn23)cc1 [YY-005] | – | 1000 to 10000 | –
CCOc1ccc(-c2nccc3nc(Nc4ccc(OCCN5CCCC5)c(OC)c4)nn23)cc1 [YY-006] | – | 100 to 1000 | –
CCOc1ccc(-c2nccc3nc(Nc4ccc(OCCN5CCCC5)cc4)nn23)cc1 [YY-007] | – | 100 to 1000 | –
COc1cc(Nc2nc3ccnc(-c4ccc5c(c4)OCCO5)n3n2)ccc1OCCN1CCCC1 [YY-008] | – | 100 to 1000 | –
CCN(CC)CCOc1cccc(Nc2nc3ccnc(-c4ccc5c(c4)OCCO5)n3n2)c1 [YY-009] | – | 100 to 1000 | –
c1cc2nc(Nc3ccc(OCCN4CCCC4)cc3)nn2c(-c2ccc3c(c2)OCCO3)n1 [YY-010] | – | 100 to 1000 | –
c1ccc(Cn2cc(-c3nccc4nc(Nc5ccc(OCCN6CCCC6)cc5)nn34)cn2)cc1 [YY-011, [5-(1-Benzyl-1H-pyrazol-4-yl)-[1,2,4]triazolo[1,5-c]pyrimidin-2-yl]-[4-(2-pyrrolidin-1-yl-ethoxy)-phenyl]-amine] | – | 100 to 1000 | –
FC(F)(F)c1ccc(-c2nccc3nc(Nc4ccc(OCCN5CCCC5)cc4)nn23)cc1 [YY-013] | – | 100 to 1000 | –
Cc1ccc(-c2nccc3nc(Nc4ccc(OCCN5CCCC5)cc4)nn23)cc1F [YY-014] | – | ≤ 100 | –
Cc1cc(C)cc(-c2nccc3nc(Nc4ccc(OCCN5CCCC5)cc4)nn23)c1 [YY-015] | – | 100 to 1000 | –
CCN(CC)CCOc1cc(Nc2nc3ccnc(-c4cnn(Cc5ccccc5)c4)n3n2)ccn1 [YY-016] | – | 1000 to 10000 | –
O=C(Nc1nc2ccnc(-c3ccc4c(c3)OCCO4)n2n1)C1CC1 [ZZ-001, Cyclopropanecarboxylic acid [5-(2,3-dihydro-benzo[1,4]dioxin-6-yl)-[1,2,4]triazolo[1,5-c]pyrimidin-2-yl]-amide] | 364 nM | 100 to 1000 | –
CCOc1ccc(-c2nccc3nc(NC(=O)C4CC4)nn23)cc1 [ZZ-002] | – | 100 to 1000 | –
COc1ccc(-c2nccc3nc(NC(=O)C4CC4)nn23)cc1 [ZZ-003] | – | 1000 to 10000 | –
